Laboratory results reported in publication PMC5218480 (PLoS ONE, 2017).

Tested on: MV-4-11 cells
Test: Gene expression microarray analysis (Affymetrix PrimeView) and GSEA
Assay type: cell-based, human
Set-up: RFU PODN (11730768_x_at) / Fold change /veh PODN (11730768_x_at) / RFU LINC00158 (11744669_a_at) / Fold change /veh LINC00158 (11744669_a_at) / RFU DUSP10 (11751237_a_at) / Fold change /veh DUSP10 (11751237_a_at) / RFU ID3 (11757404_x_at) / Fold change /veh ID3 (11757404_x_at) / RFU PLEKHG5 (11737974_s_at) / Fold change /veh PLEKHG5 (11737974_s_at) / RFU LRRC4B (11730491_at) / Fold change /veh LRRC4B (11730491_at) / RFU GIMAP4 (11747438_a_at) / Fold change /veh GIMAP4 (11747438_a_at) / RFU KRT8 (11758183_x_at) / Fold change /veh KRT8 (11758183_x_at) / RFU CNN1 (11734310_a_at) / Fold change /veh CNN1 (11734310_a_at) / RFU VPS37D (11726825_at) / Fold change /veh VPS37D (11726825_at) / RFU C10orf10 (11716522_x_at) / Fold change /veh C10orf10 (11716522_x_at) / RFU KIR2DL2 /// KIR2DL4 /// KIR2DL5A /// KIR2DL5B /// KIR2DS1 /// KIR2DS2 /// KIR2DS3 /// KIR2DS4 /// KIR3DL3 /// KIR3DL3 /// KIR3DS1 (11738374_at) / Fold change /veh KIR2DL2 /// KIR2DL4 /// KIR2DL5A /// KIR2DL5B /// KIR2DS1 /// KIR2DS2 /// KIR2DS3 /// KIR2DS4 /// KIR3DL3 /// KIR3DL3 /// KIR3DS1 (11738374_at) / RFU C1QL1 (11718748_at) / Fold change /veh C1QL1 (11718748_at) / RFU TMPRSS4 (11747572_a_at) / Fold change /veh TMPRSS4 (11747572_a_at) / RFU HAMP (11756126_x_at) / Fold change /veh HAMP (11756126_x_at) / RFU RNFT2 (11725882_a_at) / Fold change /veh RNFT2 (11725882_a_at) / RFU NR4A2 (11747474_a_at) / Fold change /veh NR4A2 (11747474_a_at) / RFU ABCC12 (11746883_a_at) / Fold change /veh ABCC12 (11746883_a_at) / RFU TMEM136 (11760407_x_at) / Fold change /veh TMEM136 (11760407_x_at) / RFU CLDN22 /// WWC2 (11732394_at) / Fold change /veh CLDN22 /// WWC2 (11732394_at) / RFU HLA-DPB1 (11760878_x_at) / Fold change /veh HLA-DPB1 (11760878_x_at) / RFU SPINT1 (11716480_a_at) / Fold change /veh SPINT1 (11716480_a_at) / RFU GAP43 (11754022_s_at) / Fold change /veh GAP43 (11754022_s_at) / RFU A4GNT (11735810_at) / Fold change /veh A4GNT (11735810_at) / RFU PRB3 (11715151_x_at) / Fold change /veh PRB3 (11715151_x_at) / RFU TUBB4B (11761932_at) / Fold change /veh TUBB4B (11761932_at) / RFU CAPN14 (11732068_a_at) / Fold change /veh CAPN14 (11732068_a_at) / RFU TMCC2 (11721928_a_at) / Fold change /veh TMCC2 (11721928_a_at) / RFU IRGQ (11745062_a_at) / Fold change /veh IRGQ (11745062_a_at) / RFU FAM174B (11720279_a_at) / Fold change /veh FAM174B (11720279_a_at) / RFU TMPRSS4 (11748680_a_at) / Fold change /veh TMPRSS4 (11748680_a_at) / RFU FAM212B (11763350_a_at) / Fold change /veh FAM212B (11763350_a_at) / RFU PLEKHG5 (11743358_a_at) / Fold change /veh PLEKHG5 (11743358_a_at) / RFU ZSCAN30 (11745921_a_at) / Fold change /veh ZSCAN30 (11745921_a_at) / RFU CMKLR1 (11741424_a_at) / Fold change /veh CMKLR1 (11741424_a_at) / RFU LOC101060620 /// MAPK8IP1 (11723275_at) / Fold change /veh LOC101060620 /// MAPK8IP1 (11723275_at) / RFU SPTSSB (11747773_x_at) / Fold change /veh SPTSSB (11747773_x_at) / RFU PRSS12 (11739890_at) / Fold change /veh PRSS12 (11739890_at) / RFU BIN1 (11741810_x_at) / Fold change /veh BIN1 (11741810_x_at) / RFU WNT11 (11732464_a_at) / Fold change /veh WNT11 (11732464_a_at) / RFU C10orf10 (11716521_a_at) / Fold change /veh C10orf10 (11716521_a_at) / RFU C5orf56 (11738089_at) / Fold change /veh C5orf56 (11738089_at) / RFU CYB561 (11721691_x_at) / Fold change /veh CYB561 (11721691_x_at) / RFU ANKRD19P (11752326_a_at) / Fold change /veh ANKRD19P (11752326_a_at) / RFU OR2T12 /// OR2T33 /// OR2T8 (11738714_s_at) / Fold change /veh OR2T12 /// OR2T33 /// OR2T8 (11738714_s_at) / RFU VCAN (11748164_a_at) / Fold change /veh VCAN (11748164_a_at) / RFU JSRP1 (11732532_at) / Fold change /veh JSRP1 (11732532_at) / RFU KRTAP10-11 (11738290_x_at) / Fold change /veh KRTAP10-11 (11738290_x_at) / RFU MYO3A (11730013_a_at) / Fold change /veh MYO3A (11730013_a_at) / RFU EBF3 (11725865_a_at) / Fold change /veh EBF3 (11725865_a_at) / RFU CAMK2N1 (11719241_x_at) / Fold change /veh CAMK2N1 (11719241_x_at) / RFU C5orf56 (11738088_a_at) / Fold change /veh C5orf56 (11738088_a_at) / RFU OLFML3 (11715873_a_at) / Fold change /veh OLFML3 (11715873_a_at) / RFU LOC100653217 /// NTM (11731650_a_at) / Fold change /veh LOC100653217 /// NTM (11731650_a_at) / RFU MAPK11 (11762145_a_at) / Fold change /veh MAPK11 (11762145_a_at) / RFU FIZ1 (11724087_x_at) / Fold change /veh FIZ1 (11724087_x_at) / RFU OASL (11726364_x_at) / Fold change /veh OASL (11726364_x_at) / RFU SOX15 (11748057_x_at) / Fold change /veh SOX15 (11748057_x_at) / RFU CD79A (11719716_a_at) / Fold change /veh CD79A (11719716_a_at) / RFU HIST1H1D (11736915_at) / Fold change /veh HIST1H1D (11736915_at) / RFU CASKIN2 (11723855_a_at) / Fold change /veh CASKIN2 (11723855_a_at) / RFU LOC730098 (11760151_x_at) / Fold change /veh LOC730098 (11760151_x_at) / RFU OR4N2 (11742367_at) / Fold change /veh OR4N2 (11742367_at) / RFU PRRT2 (11749266_a_at) / Fold change /veh PRRT2 (11749266_a_at) / RFU SNX32 (11753110_a_at) / Fold change /veh SNX32 (11753110_a_at) / RFU CDHR5 (11726645_a_at) / Fold change /veh CDHR5 (11726645_a_at) / RFU RCAN1 (11760418_a_at) / Fold change /veh RCAN1 (11760418_a_at) / RFU FAM167A (11723789_a_at) / Fold change /veh FAM167A (11723789_a_at) / RFU FAM26E (11764081_at) / Fold change /veh FAM26E (11764081_at) / RFU ISYNA1 (11749810_s_at) / Fold change /veh ISYNA1 (11749810_s_at) / RFU ACY1 (11761880_at) / Fold change /veh ACY1 (11761880_at) / RFU 11764098_at / Fold change /veh 11764098_at / RFU SAMD14 (11745864_x_at) / Fold change /veh SAMD14 (11745864_x_at) / RFU NPB (11741838_a_at) / Fold change /veh NPB (11741838_a_at) / RFU TMPRSS6 (11731388_a_at) / Fold change /veh TMPRSS6 (11731388_a_at) / RFU KRTAP10-2 (11738614_at) / Fold change /veh KRTAP10-2 (11738614_at) / RFU ARHGAP8 /// PRR5-ARHGAP8 (11727945_x_at) / Fold change /veh ARHGAP8 /// PRR5-ARHGAP8 (11727945_x_at) / RFU KRTAP5-7 /// NADSYN1 (11734609_at) / Fold change /veh KRTAP5-7 /// NADSYN1 (11734609_at) / RFU RASL12 (11751679_a_at) / Fold change /veh RASL12 (11751679_a_at) / RFU CDKN2B (11736163_a_at) / Fold change /veh CDKN2B (11736163_a_at) / RFU PRF1 (11729649_at) / Fold change /veh PRF1 (11729649_at) / RFU, ZNF638 /// ZNF638-IT1 / Fold change vs veh, ZNF638 /// ZNF638-IT1 / RFU, PANK3 / Fold change vs veh, PANK3 / RFU, SH3YL1 / Fold change vs veh, SH3YL1 / RFU, ZEB2 / Fold change vs veh, ZEB2 / RFU, NRIP1 / Fold change vs veh, NRIP1 / RFU, PTTG1IP / Fold change vs veh, PTTG1IP / RFU, CAPN2 / Fold change vs veh, CAPN2 / RFU, MED14 / Fold change vs veh, MED14 / RFU, SNORA58 / Fold change vs veh, SNORA58 / RFU, C1orf63 / Fold change vs veh, C1orf63 / RFU, LRRFIP1 / Fold change vs veh, LRRFIP1 / RFU, NDUFAF7 / Fold change vs veh, NDUFAF7 / RFU, SLC12A2 / Fold change vs veh, SLC12A2 / RFU, IBTK / Fold change vs veh, IBTK / RFU, ESF1 / Fold change vs veh, ESF1 / Fold change vs veh, TMEM50B / RFU, TAOK1 / Fold change vs veh, TAOK1 / RFU, ACBD3 / Fold change vs veh, ACBD3 / RFU, TMA16 / Fold change vs veh, TMA16 / RFU, RWDD3 / Fold change vs veh, RWDD3 / RFU, BCAT1 / Fold change vs veh, BCAT1 / RFU, EDEM3 / Fold change vs veh, EDEM3 / RFU, TMEM33 / Fold change vs veh, TMEM33 / RFU, WDR75 / Fold change vs veh, WDR75 / RFU, AHCTF1 / Fold change vs veh, AHCTF1 / RFU, TFRC / Fold change vs veh, TFRC / RFU, ZDHHC17 / Fold change vs veh, ZDHHC17 / RFU, NOM1 / Fold change vs veh, NOM1 / RFU, ARL8B / Fold change vs veh, ARL8B / RFU, ZBTB11 / Fold change vs veh, ZBTB11 / RFU, TAMM41 / Fold change vs veh, TAMM41 / RFU, KIAA1704 /// LOC100996395 / Fold change vs veh, KIAA1704 /// LOC100996395 / RFU, ING1 / Fold change vs veh, ING1 / RFU, TRMT61B / Fold change vs veh, TRMT61B / RFU, FUBP3 / Fold change vs veh, FUBP3 / RFU, TP53 / Fold change vs veh, TP53 / RFU, TNKS2 / Fold change vs veh, TNKS2 / RFU, ZFP14 / Fold change vs veh, ZFP14 / RFU, ACTR2 / Fold change vs veh, ACTR2 / RFU, PPP3R1 / Fold change vs veh, PPP3R1 / RFU, PIK3R1 / Fold change vs veh, PIK3R1 / RFU, HNRNPA1 / Fold change vs veh, HNRNPA1 / RFU, RNF170 / Fold change vs veh, RNF170 / RFU, ZNF28 / Fold change vs veh, ZNF28 / RFU, RNGTT / Fold change vs veh, RNGTT / RFU, OGT / Fold change vs veh, OGT / RFU, BRD1 / Fold change vs veh, BRD1 / RFU, MARS / Fold change vs veh, MARS / RFU, ZNF655 / Fold change vs veh, ZNF655 / RFU, FAHD1 / Fold change vs veh, FAHD1 / RFU, BDP1 / Fold change vs veh, BDP1 / RFU, LRRCC1 / Fold change vs veh, LRRCC1 / RFU, ARID1A / Fold change vs veh, ARID1A / RFU, ZNF146 / Fold change vs veh, ZNF146 / RFU, ZNF330 / Fold change vs veh, ZNF330 / RFU, GPN3 / Fold change vs veh, GPN3 / RFU, C9orf123 / Fold change vs veh, C9orf123 / RFU, N4BP2L2 / Fold change vs veh, N4BP2L2 / RFU, ARFIP1 / Fold change vs veh, ARFIP1 / RFU, FAM179B / Fold change vs veh, FAM179B / RFU, BCL10 / Fold change vs veh, BCL10 / RFU, UHRF1BP1L / Fold change vs veh, UHRF1BP1L / RFU, BET1 / Fold change vs veh, BET1 / RFU, CNOT2 / Fold change vs veh, CNOT2 / RFU, ZNF268 / Fold change vs veh, ZNF268 / Fold change vs veh, ZNF507 / RFU, DGCR2 / Fold change vs veh, DGCR2 / RFU, WDSUB1 / Fold change vs veh, WDSUB1 / Fold change vs veh, HSP90B1 /// MIR3652 / RFU, ADSS / Fold change vs veh, ADSS / RFU, GK / Fold change vs veh, GK / RFU, ZNF148 / Fold change vs veh, ZNF148 / RFU, TAF9 / Fold change vs veh, TAF9 / RFU, SLC1A5 / Fold change vs veh, SLC1A5 / RFU, SLMO2 / Fold change vs veh, SLMO2 / RFU, ABCC4 / Fold change vs veh, ABCC4 / RFU, LOC101060439 /// RAP1B / Fold change vs veh, LOC101060439 /// RAP1B / RFU, RFX7 / Fold change vs veh, RFX7 / RFU, GTPBP10 / Fold change vs veh, GTPBP10 / RFU, CNEP1R1 / Fold change vs veh, CNEP1R1 / RFU, BIVM-ERCC5 /// ERCC5 / Fold change vs veh, BIVM-ERCC5 /// ERCC5 / RFU, ILF3 / Fold change vs veh, ILF3 / RFU 11762660_at / Fold change /veh 11762660_at / RFU VCAN (11757783_s_at) / Fold change /veh VCAN (11757783_s_at) / RFU DDX43 (11728927_at) / Fold change /veh DDX43 (11728927_at) / RFU KRT8 (11758188_x_at) / Fold change /veh KRT8 (11758188_x_at) / RFU NKD1 (11759106_at) / Fold change /veh NKD1 (11759106_at) / RFU SRD5A1 (11742802_a_at) / Fold change /veh SRD5A1 (11742802_a_at) / RFU TPSAB1 /// TPSB2 (11721975_s_at) / Fold change /veh TPSAB1 /// TPSB2 (11721975_s_at) / RFU GSTM3 (11746129_a_at) / Fold change /veh GSTM3 (11746129_a_at) / RFU IL23R (11737362_x_at) / Fold change /veh IL23R (11737362_x_at) / RFU TMEM51 (11727254_a_at) / Fold change /veh TMEM51 (11727254_a_at) / RFU PIWIL2 (11732686_x_at) / Fold change /veh PIWIL2 (11732686_x_at) / RFU ORM1 (11744905_x_at) / Fold change /veh ORM1 (11744905_x_at) / RFU CCDC152 (11743942_at) / Fold change /veh CCDC152 (11743942_at) / RFU ECM1 (11717891_a_at) / Fold change /veh ECM1 (11717891_a_at) / RFU IL23R (11748794_a_at) / Fold change /veh IL23R (11748794_a_at) / RFU TNFAIP8L3 (11732012_x_at) / Fold change /veh TNFAIP8L3 (11732012_x_at) / RFU MBOAT4 (11741988_at) / Fold change /veh MBOAT4 (11741988_at) / RFU 11764193_at / Fold change /veh 11764193_at / RFU TMEM53 (11763286_at) / Fold change /veh TMEM53 (11763286_at) / RFU MAGEB2 (11727129_at) / Fold change /veh MAGEB2 (11727129_at) / RFU TMEM200A (11744735_a_at) / Fold change /veh TMEM200A (11744735_a_at) / RFU CCDC152 (11751479_a_at) / Fold change /veh CCDC152 (11751479_a_at) / RFU FAM211A (11726209_a_at) / Fold change /veh FAM211A (11726209_a_at) / RFU RGS16 (11746705_a_at) / Fold change /veh RGS16 (11746705_a_at) / RFU VCAN (11755009_s_at) / Fold change /veh VCAN (11755009_s_at) / RFU RHOB (11743442_s_at) / Fold change /veh RHOB (11743442_s_at) / RFU RGS16 (11720943_a_at) / Fold change /veh RGS16 (11720943_a_at) / RFU RGS16 (11720944_at) / Fold change /veh RGS16 (11720944_at) / RFU, VPS4B / Fold change vs veh, VPS4B / RFU, CREB1 / Fold change vs veh, CREB1 / RFU, DNAJC13 / Fold change vs veh, DNAJC13 / RFU, GNAQ / Fold change vs veh, GNAQ / RFU, CDK5R1 / Fold change vs veh, CDK5R1 / RFU, ZRANB3 / Fold change vs veh, ZRANB3 / RFU, CUL4A / Fold change vs veh, CUL4A / RFU, CCNY / Fold change vs veh, CCNY / RFU, UFL1 / Fold change vs veh, UFL1 / RFU, COG3 / Fold change vs veh, COG3 / RFU, DIAPH2 / Fold change vs veh, DIAPH2 / RFU, SKA2 / Fold change vs veh, SKA2 / RFU, AFF3 / Fold change vs veh, AFF3 / RFU, LMF1 / Fold change vs veh, LMF1 / RFU, IPO11 / Fold change vs veh, IPO11 / RFU, DFFB / Fold change vs veh, DFFB / RFU, FOXP1 / Fold change vs veh, FOXP1 / RFU, CARD8 / Fold change vs veh, CARD8 / RFU, STRN3 / Fold change vs veh, STRN3 / RFU, ADK / Fold change vs veh, ADK / RFU, RASSF2 / Fold change vs veh, RASSF2 / RFU, WIPF1 / Fold change vs veh, WIPF1 / RFU, LARP1B / Fold change vs veh, LARP1B / RFU, RASA1 / Fold change vs veh, RASA1 / RFU, RB1 / Fold change vs veh, RB1 / RFU, PPFIA1 / Fold change vs veh, PPFIA1 / RFU, MAT2A / Fold change vs veh, MAT2A / RFU, CCT5 / Fold change vs veh, CCT5 / RFU, WDR92 / Fold change vs veh, WDR92 / RFU, CUX1 / Fold change vs veh, CUX1 / RFU, TTC7A / Fold change vs veh, TTC7A / RFU, TMEM135 / Fold change vs veh, TMEM135 / RFU, DEPTOR / Fold change vs veh, DEPTOR / RFU, CPM / Fold change vs veh, CPM / RFU, DNAJB6 / Fold change vs veh, DNAJB6 / RFU, CACNA2D3 / Fold change vs veh, CACNA2D3 / RFU, DTX4 / Fold change vs veh, DTX4 / RFU, TFCP2 / Fold change vs veh, TFCP2 / RFU, GMCL1 /// GMCL1P1 / Fold change vs veh, GMCL1 /// GMCL1P1 / RFU, AEBP2 / Fold change vs veh, AEBP2 / RFU, SNHG1 /// SNORD22 /// SNORD25 /// SNORD26 /// SNORD27 /// SNORD28 /// SNORD29 /// SNORD31 / Fold change vs veh, SNHG1 /// SNORD22 /// SNORD25 /// SNORD26 /// SNORD27 /// SNORD28 /// SNORD29 /// SNORD31 / Fold change (Aza/veh), C12orf56 (ProbeSet 11735607_a_at) / Fold change (ACY-1035/veh), C12orf56 (ProbeSet 11735607_a_at) / Fold change (Aza/veh), FGFR1OP (ProbeSet 11751329_s_at) / Fold change (ACY-1035/veh), FGFR1OP (ProbeSet 11751329_s_at) / Fold change (Aza/veh), VPS36 (ProbeSet 11739960_a_at) / Fold change (ACY-1035/veh), VPS36 (ProbeSet 11739960_a_at) / RFU SYPL1 (11715823_x_at) / Fold change /veh SYPL1 (11715823_x_at) / RFU IGFBP7 (11715501_s_at) / Fold change /veh IGFBP7 (11715501_s_at) / RFU REEP3 (11722064_at) / Fold change /veh REEP3 (11722064_at) / RFU IGLL1 (11728026_x_at) / Fold change /veh IGLL1 (11728026_x_at): dose or concentration left out as unconfirmed
Conditions: ProbeSet 11719185_x_at; LIST B

Nc1ncn([C@@H]2O[C@H](CO)[C@@H](O)[C@H]2O)c(=O)n1 [azacitidine]
Fold change vs veh, N4BP2L2: 0.90
